Measurements taken from patent US20070099963A1, “Nematicidal compositions and methods” (priority 2005, published 2007).

Key:
Thrips [1] = test: Thrips damage rating on cotton plants (Example 1); assay type: in vivo; conditions: cotton Delta and Pineland variety 555, rating 1 = no damage, 5 = plant dead; for Thrips Damage Rating 3 weeks: 3 weeks after planting; for Thrips Damage Rating 4 weeks: 4 weeks after planting
Source text: This example illustrates the effect of a composition of the invention on cotton plant damage and plant height for cotton plants planted in soil known to have nematode (Rotylenchulus reniformis) pressure. The cotton plants utilized were commercially available Delta and Pineland variety 555.
The compositions described in Table 1 below were applied either as a seed treatment (Samples B, C, and E-G) or in furrow (Sample D) at the respective application rates set forth in Table 1.

Thrips [2] = test: Thrips damage rating on cotton plants (Example 2); assay type: in vivo; conditions: Fibermax cotton variety 960, rating 1 = no damage, 5 = plant dead; for Thrips Damage Rating 3 weeks: 3 weeks after planting; for Thrips Damage Rating 4 weeks: 4 weeks after planting
Source text: This example illustrates the effect of the compositions from Table 1 for cotton plants planted in soil known to have nematode (Rotylenchulus reniformis) pressure. FIGS. 4 and 5 illustrate the Thrips damage ratings at three and four weeks, respectively, after planting. FIG. 6 illustrates the plant height seven weeks after planting. The cotton plants utilized were commercially available Fibermax cotton variety 960.

Structure (SMILES) | Thrips Damage Rating 3 weeks (Thrips [1]) | Thrips Damage Rating 4 weeks (Thrips [1]) | Thrips Damage Rating 3 weeks (Thrips [2]) | Thrips Damage Rating 4 weeks (Thrips [2])
O=[N+]([O-])NC1=NCCN1Cc1ccc(Cl)nc1 [B, imidacloprid] | 2 | 2.3 | 2.63 | 2.5
O=[N+]([O-])NC1=NCCN1Cc1ccc(Cl)nc1 [E, imidacloprid] | 2.25 | 2.4 | 2.88 | 3
CNC(=O)O/N=C/C(C)(C)SC [Sample D, aldicarb] | 1.13 | 1.5 | 2.5 | 2.1
